Results published in patent US20220298486A1, “UROTHELIAL CELL INDUCTION AGENT AND METHOD FOR INDUCING UROTHELIAL CELLS” (CellAxia Inc, priority 2019, published 2022).

Legend:
Type in all cases: cell-based, human
[1] = system: aHDFs into which F, T, L, and K had been introduced; assay: examination of medium components (modified Uromedium) for selective proliferation of dUCs; details: for influence of concentration of the component on UPK2 mRNA: Uromedium with modified concentration
Procedure: (A) aHDFs into which F, T, L, and K had been introduced were cultured in “Uromedium” medium with modified concentrations of insulin, hydrocortisone, EGF, and IBMX. On Day 21, total RNA was extracted from aHDFs and control aHDFs free of gene introduction, and the gene expression level of UPK2 was measured by real-time RT-PCR. The values shown by mean±SD were normalized by β-actin mRNA expression and shown relative to the value of aHDFs free of gene introduction as 1.0 (N=3). (B) Phase-contrast microscopic images of aHDFs into which F, T, L, and K were introduced, and cultured for 21 days in “Uromedium” medium in which the concentration of hydrocortisone was modified to 0-fold and the concentration of IBMX was modified to 10-fold. Imaging magnification: ×10 (C) Phase-contrast microscopic images of aHDFs into which F, T, L, and K were introduced, and cultured for 21 days in “Uromedium” medium with or without addition of 1 μM tranylcypromine. The bar is 100 μm. (D) Phase-contrast microscopic images of aHDFs into which F, T, L, and K were introduced or not introduced, and cultured for 21 days in “Uromedium” medium or “UCM” medium. The bar is 100 μm.
“Uromedium” medium was produced according to the method of Osborn et al. (Osborn S L, (2014) Stem Cell Transl Med 3(5):610-619.). In summary fashion, the “Uromedium” medium is composed of EpiLife™ medium supplemented with 60 μM calcium (Gibco; MEP1500CA), 60 μg/mL bovine brain hypophysis extract (Gibco), 5 μg/mL human gene recombinant insulin (Diagnocine), 500 ng/mL hydrocortisone (Tokyo Chemical Industry Co., Ltd.), gentamicinamphotericin (Gibco), 2% FBS, 0.1 ng/mL human gene recombinant epidermal growth factor (EGF) (RSD), and 100 μM 3-isobutyl 1-methylxanthine (IBMX) (Sigma-Aldrich).
The “UCM” medium is composed of EpiLife™ medium supplemented with 60 μM calcium, 60 μg/mL bovine brain hypophysis extract, 5 μg/mL human gene recombinant insulin, gentamicinamphotericin, 2% FBS, 0.01 ng/mL human gene recombinant EGF, 1 mM IBMX, and 1 μM tranylcypromine (Abcam).

aHDFs [2] = assay: real-time RT-PCR of marker mRNA in aHDFs after retroviral gene introduction; details: F, T, L, K-introduced aHDFs; plates uncoated or coated with collagen, poly-L-lysine, laminin; day 21
Procedure: (§1) aHDFs were seeded on a laminin-coated 12-well plate or a laminin-uncoated 12-well plate, and the gene was introduced using a retroviral vector. The cells were cultured in CnT-Prime medium or other medium, and 21 days later, observation with a phase contrast microscope, real-time PCR, and analysis of immunocytochemistry were performed. The cells were passaged in fresh culture plates and used for RNA sequencing and penetration assay. In the in vivo experiment, cells into which F, T, L, and K had been introduced were transurethrally transplanted into the injured bladder cavity of an interstitial cystitis mouse through a catheter.
(§2) aHDFs were seeded in 12-well plates coated with atelocollagen (KOKEN; I-PC30), poly-L-lysine (ScienCell), or laminin (Easy iMatrix-511 silk) at a density of 3×10^4 cells/well. After 24 hr, the medium was replaced with the retroviral suspension that was filtrated through a 0.45 μm pore filter (Toyo Roshi Kaisha, Ltd., ADVANTEC) and supplemented with 4 μg/mL polybrene. The next day, the culture supernatant was replaced with Standard Medium free of virus, and replaced with CnT-Prime or “UCM” medium 3 days later. The culture medium was changed every 3 or 4 days.
Total RNA was extracted using RNeasy Mini Kit (Qigen) according to the manufacturer's protocol. […] The relative mRNA expression levels were calculated from the following formula: […]

aHDFs [3] = assay: epithelial (urothelial) cell colony formation, phase contrast microscope observation; details: F, T, L, K-introduced aHDFs; plates uncoated or coated with collagen, poly-L-lysine, laminin; day 21
Procedure: as §1, §2

insulin: human gene recombinant insulin
influence of concentration of the component on UPK2 mRNA ([1]; day 21): not definitive

EGF: human gene recombinant epidermal growth factor
mRNA expression of UPK2 ([1]; addition of 0.01-1 ng/mL EGF, day 21): increased

N[C@@H]1C[C@H]1c1ccccc1 (racemic) [tranylcypromine]
formation of urothelial cell colonies ([1]; Uromedium with addition of 1 μM tranylcypromine, 21 days): enhanced

C[C@]12CCC(=O)C=C1CC[C@@H]1[C@@H]2[C@@H](O)C[C@@]2(C)[C@H]1CC[C@]2(O)C(=O)CO [hydrocortisone]
influence of concentration of the component on UPK2 mRNA ([1]; day 21): not definitive

laminin
expression of UPK1b and UPK2 mRNAs by plate coating (aHDFs [2]): the highest
epithelial cell colony formation by plate coating (aHDFs [3]): formed only in laminin-coated plates

CC(C)Cn1c(=O)n(C)c(=O)c2[nH]cnc21 [IBMX, 3-isobutyl 1-methylxanthine]
expression of UPK2 mRNA ([1]; 1-10 mM IBMX in Uromedium, day 21): played a beneficial role
epithelial cell colony formation ([1]; medium containing 10 mM IBMX, 21 days): form epithelial cell colonies
